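These data come from cells grown in 96-well plates and exposed to compound for 48 hours at five concentrations. TGI denotes the concentration required for complete inhibition of growth.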
What was measured:
Experiment in all cases: NCI-60 cell line screen, 48 h
[1] = test system: NCI/ADR-RES ovarian
[2] = test system: NCI-H23 lung
[3] = test system: SNB-75 CNS
[4] = test system: OVCAR-5 ovarian
[5] = test system: 786-0 renal
[6] = test system: A498 renal
[7] = test system: MOLT-4 leukemia
[8] = test system: SNB-19 CNS
[9] = test system: SF-268 CNS
[10] = test system: SK-OV-3 ovarian
[11] = test system: K-562 leukemia
[12] = test system: LOX IMVI melanoma
[13] = test system: MDA-MB-435
[14] = test system: MALME-3M melanoma
[15] = test system: SK-MEL-28 melanoma
[16] = test system: EKVX NSCLC
[17] = test system: CCRF-CEM leukemia
[18] = test system: IGROV1 ovarian
[19] = test system: NCI-H226 lung
[20] = test system: UACC-257 melanoma
[21] = test system: SF-539 CNS
[22] = test system: OVCAR-8 ovarian
[23] = test system: RXF 393 renal
[24] = test system: MDA-N
[25] = test system: SW-620 colon
[26] = test system: DU-145 prostate
[27] = test system: BT-549 breast
[28] = test system: MCF7 breast
[29] = test system: HS 578T breast
[30] = test system: A549 NSCLC
[31] = test system: SR leukemia
[32] = test system: SN12C renal
[33] = test system: UACC-62 melanoma
[34] = test system: NCI-H522 lung
[35] = test system: HL-60(TB) leukemia
[36] = test system: TK-10 renal
[37] = test system: T-47D breast
[38] = test system: SF-295 CNS
[39] = test system: M14 melanoma
[40] = test system: HOP-62 NSCLC
[41] = test system: COLO 205 colon
[42] = test system: SK-MEL-5 melanoma
[43] = test system: CAKI-1 renal
[44] = test system: HOP-92 NSCLC
[45] = test system: UO-31 renal
[46] = test system: NCI-H460 lung
[47] = test system: ACHN renal
[48] = test system: U251 CNS
[49] = test system: HCT-116 colon
[50] = test system: MDA-MB-231 breast
[51] = test system: RPMI-8226 leukemia
[52] = test system: KM12 colon
[53] = test system: HCT-15 colon
[54] = test system: PC-3 prostate
[55] = test system: HT29 colon
[56] = test system: HCC-2998 colon
[57] = test system: OVCAR-3 ovarian
[58] = test system: SK-MEL-2 melanoma
[59] = test system: OVCAR-4 ovarian

Structure (SMILES): COc1cc(OC)c(-c2oc3ccccc3c(=O)c2O)c(OC)c1
- TGI [1]: 5.05 µM
- TGI [2]: > 100 µM
- TGI [3]: > 100 µM
- TGI [4]: > 100 µM
- TGI [5]: > 100 µM
- TGI [6]: > 100 µM
- TGI [7]: > 100 µM
- TGI [8]: > 100 µM
- TGI [9]: > 100 µM
- TGI [10]: > 100 µM
- TGI [11]: > 100 µM
- TGI [12]: > 100 µM
- TGI [13]: 2.5 µM
- TGI [14]: 98.3 µM
- TGI [15]: > 100 µM
- TGI [16]: > 100 µM
- TGI [17]: > 100 µM
- TGI [18]: > 100 µM
- TGI [19]: > 100 µM
- TGI [20]: > 100 µM
- TGI [21]: > 100 µM
- TGI [22]: > 100 µM
- TGI [23]: 37.7 µM
- TGI [24]: 2.93 µM
- TGI [25]: > 100 µM
- TGI [26]: > 100 µM
- TGI [27]: > 100 µM
- TGI [28]: > 100 µM
- TGI [29]: 24.2 µM
- TGI [30]: > 100 µM
- TGI [31]: > 100 µM
- TGI [32]: > 100 µM
- TGI [33]: > 100 µM
- TGI [34]: > 29.2 µM
- TGI [35]: > 24.1 µM
- TGI [36]: > 100 µM
- TGI [37]: > 100 µM
- TGI [38]: > 26.9 µM
- TGI [39]: > 100 µM
- TGI [40]: > 31.5 µM
- TGI [41]: > 100 µM
- TGI [42]: > 100 µM
- TGI [43]: > 40.5 µM
- TGI [44]: > 100 µM
- TGI [45]: > 100 µM
- TGI [46]: > 100 µM
- TGI [47]: > 100 µM
- TGI [48]: > 100 µM
- TGI [49]: > 100 µM
- TGI [50]: > 100 µM
- TGI [51]: > 100 µM
- TGI [52]: > 100 µM
- TGI [53]: > 100 µM
- TGI [54]: > 100 µM
- TGI [55]: > 100 µM

Structure (SMILES): CCN1CCc2sc3[nH]c(=S)n(C)c(=O)c3c2C1
- TGI [1]: > 100 µM
- TGI [2]: > 100 µM
- TGI [3]: > 100 µM
- TGI [4]: > 100 µM
- TGI [5]: > 100 µM
- TGI [6]: > 100 µM
- TGI [7]: > 100 µM
- TGI [8]: > 100 µM
- TGI [9]: > 100 µM
- TGI [10]: > 100 µM
- TGI [11]: > 100 µM
- TGI [12]: > 100 µM
- TGI [13]: > 100 µM
- TGI [14]: > 100 µM
- TGI [15]: > 100 µM
- TGI [16]: > 100 µM
- TGI [17]: > 100 µM
- TGI [18]: > 100 µM
- TGI [19]: > 100 µM
- TGI [20]: > 100 µM
- TGI [21]: > 100 µM
- TGI [22]: > 100 µM
- TGI [23]: > 100 µM
- TGI [24]: > 100 µM
- TGI [56]: > 100 µM
- TGI [25]: > 100 µM
- TGI [26]: > 100 µM
- TGI [27]: > 100 µM
- TGI [28]: > 100 µM
- TGI [29]: > 100 µM
- TGI [30]: > 100 µM
- TGI [57]: > 100 µM
- TGI [32]: > 100 µM
- TGI [33]: > 100 µM
- TGI [34]: > 100 µM
- TGI [35]: 1.83 µM
- TGI [36]: > 100 µM
- TGI [37]: > 100 µM
- TGI [38]: > 100 µM
- TGI [39]: > 100 µM
- TGI [40]: > 100 µM
- TGI [58]: > 100 µM
- TGI [41]: > 100 µM
- TGI [42]: > 100 µM
- TGI [43]: > 100 µM
- TGI [44]: > 100 µM
- TGI [45]: > 100 µM
- TGI [46]: > 100 µM
- TGI [59]: > 100 µM
- TGI [47]: > 100 µM
- TGI [48]: > 100 µM
- TGI [49]: > 100 µM
- TGI [50]: > 100 µM
- TGI [51]: > 100 µM
- TGI [52]: > 100 µM
- TGI [53]: > 100 µM
- TGI [54]: > 100 µM
- TGI [55]: > 100 µM

Structure (SMILES): NC(=O)NOCC1NC(=O)NC1=O (configuration not stated)
- TGI [1]: > 100 µM
- TGI [2]: > 100 µM
- TGI [3]: > 100 µM
- TGI [4]: > 100 µM
- TGI [5]: > 100 µM
- TGI [6]: > 100 µM
- TGI [7]: > 100 µM
- TGI [8]: > 100 µM
- TGI [9]: > 100 µM
- TGI [10]: > 100 µM
- TGI [11]: > 100 µM
- TGI [12]: > 100 µM
- TGI [13]: > 100 µM
- TGI [14]: > 100 µM
- TGI [15]: > 100 µM
- TGI [16]: > 100 µM
- TGI [17]: > 100 µM
- TGI [18]: > 100 µM
- TGI [19]: > 100 µM
- TGI [20]: > 100 µM
- TGI [21]: > 100 µM
- TGI [22]: > 100 µM
- TGI [23]: > 100 µM
- TGI [24]: > 100 µM
- TGI [25]: > 100 µM
- TGI [26]: > 100 µM
- TGI [27]: > 100 µM
- TGI [28]: > 100 µM
- TGI [29]: > 100 µM
- TGI [30]: > 100 µM
- TGI [57]: > 100 µM
- TGI [31]: > 100 µM
- TGI [32]: > 100 µM
- TGI [33]: > 100 µM
- TGI [34]: > 100 µM
- TGI [35]: > 100 µM
- TGI [36]: > 100 µM
- TGI [37]: > 100 µM
- TGI [38]: > 100 µM
- TGI [39]: > 100 µM
- TGI [40]: > 100 µM
- TGI [58]: > 100 µM
- TGI [41]: > 100 µM
- TGI [42]: > 100 µM
- TGI [43]: > 100 µM
- TGI [44]: > 100 µM
- TGI [45]: > 100 µM
- TGI [46]: > 100 µM
- TGI [59]: > 100 µM
- TGI [47]: > 100 µM
- TGI [48]: > 100 µM
- TGI [49]: > 100 µM
- TGI [50]: > 100 µM
- TGI [51]: > 100 µM
- TGI [52]: > 100 µM
- TGI [53]: > 100 µM
- TGI [54]: > 100 µM
- TGI [55]: > 100 µM

Structure (SMILES): O=C(CN1C(=O)c2ccccc2C1=O)NC1(C(=O)O)CCCC1
- TGI [1]: > 100 µM
- TGI [2]: > 100 µM
- TGI [3]: > 100 µM
- TGI [4]: > 100 µM
- TGI [5]: > 100 µM
- TGI [6]: > 100 µM
- TGI [7]: > 100 µM
- TGI [8]: > 100 µM
- TGI [9]: > 100 µM
- TGI [10]: > 100 µM
- TGI [11]: > 100 µM
- TGI [12]: > 100 µM
- TGI [13]: > 100 µM
- TGI [14]: > 100 µM
- TGI [15]: > 100 µM
- TGI [16]: > 100 µM
- TGI [17]: > 100 µM
- TGI [18]: > 100 µM
- TGI [19]: > 100 µM
- TGI [20]: > 100 µM
- TGI [22]: > 100 µM
- TGI [23]: > 100 µM
- TGI [24]: > 100 µM
- TGI [56]: > 100 µM
- TGI [25]: > 100 µM
- TGI [26]: > 100 µM
- TGI [27]: > 100 µM
- TGI [28]: > 100 µM
- TGI [29]: > 100 µM
- TGI [30]: > 100 µM
- TGI [57]: > 100 µM
- TGI [31]: > 100 µM
- TGI [32]: > 100 µM
- TGI [33]: > 100 µM
- TGI [34]: > 100 µM
- TGI [35]: > 100 µM
- TGI [36]: > 100 µM
- TGI [37]: > 100 µM
- TGI [38]: > 100 µM
- TGI [39]: > 100 µM
- TGI [40]: > 100 µM
- TGI [58]: > 100 µM
- TGI [41]: > 100 µM
- TGI [42]: > 100 µM
- TGI [43]: > 100 µM
- TGI [45]: > 100 µM
- TGI [59]: > 100 µM
- TGI [47]: > 100 µM
- TGI [48]: > 100 µM
- TGI [49]: > 100 µM
- TGI [50]: > 100 µM
- TGI [51]: > 100 µM
- TGI [52]: > 100 µM
- TGI [53]: > 100 µM
- TGI [54]: > 100 µM
- TGI [55]: > 100 µM

From PubChem BioAssay (NCI)
